Measured values from US20080287398A1, “COLD MENTHOL RECEPTOR-1 ANTAGONISTS” (priority 2007, published 2008).
Where two headings read alike, the source gives them in different places.

Target: T1, canine TRPM8 (Canis lupus familiaris, UniProt Q1A7N1)
T1 construct: expressed in transfected cells
Test: In vitro canine TRPM8 functional assay (Ca2+-sensitive dye, FLIPR/FDSS, icilin activation)
Type: cell-based
Conditions: HEK293 cells expressing canine TRPM8, icilin activation; for % I (0.5 μM): 0.5 μM compound; for IC50: eight-point dose-response; for % I (1 μM): 1 μM compound; for inhibition at 1 µM: HEK293, read-out: % I (1 μM), 1 μM compound
Method in brief: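 Icilin challenge (final concentration producing ~80% of maximal response) followed a 5 min compound exposure in canine TRPM8-HEK293 cells dye-loaded with Calcium 3. Intracellular Ca2+ was read on FLIPR/FDSS. EC50 and IC50 values came from nonlinear sigmoidal dose-response fits of basal-subtracted, percent-of-maximum data averaged over quadruplicates.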

T1 sequence (Q1A7N1 1-1104): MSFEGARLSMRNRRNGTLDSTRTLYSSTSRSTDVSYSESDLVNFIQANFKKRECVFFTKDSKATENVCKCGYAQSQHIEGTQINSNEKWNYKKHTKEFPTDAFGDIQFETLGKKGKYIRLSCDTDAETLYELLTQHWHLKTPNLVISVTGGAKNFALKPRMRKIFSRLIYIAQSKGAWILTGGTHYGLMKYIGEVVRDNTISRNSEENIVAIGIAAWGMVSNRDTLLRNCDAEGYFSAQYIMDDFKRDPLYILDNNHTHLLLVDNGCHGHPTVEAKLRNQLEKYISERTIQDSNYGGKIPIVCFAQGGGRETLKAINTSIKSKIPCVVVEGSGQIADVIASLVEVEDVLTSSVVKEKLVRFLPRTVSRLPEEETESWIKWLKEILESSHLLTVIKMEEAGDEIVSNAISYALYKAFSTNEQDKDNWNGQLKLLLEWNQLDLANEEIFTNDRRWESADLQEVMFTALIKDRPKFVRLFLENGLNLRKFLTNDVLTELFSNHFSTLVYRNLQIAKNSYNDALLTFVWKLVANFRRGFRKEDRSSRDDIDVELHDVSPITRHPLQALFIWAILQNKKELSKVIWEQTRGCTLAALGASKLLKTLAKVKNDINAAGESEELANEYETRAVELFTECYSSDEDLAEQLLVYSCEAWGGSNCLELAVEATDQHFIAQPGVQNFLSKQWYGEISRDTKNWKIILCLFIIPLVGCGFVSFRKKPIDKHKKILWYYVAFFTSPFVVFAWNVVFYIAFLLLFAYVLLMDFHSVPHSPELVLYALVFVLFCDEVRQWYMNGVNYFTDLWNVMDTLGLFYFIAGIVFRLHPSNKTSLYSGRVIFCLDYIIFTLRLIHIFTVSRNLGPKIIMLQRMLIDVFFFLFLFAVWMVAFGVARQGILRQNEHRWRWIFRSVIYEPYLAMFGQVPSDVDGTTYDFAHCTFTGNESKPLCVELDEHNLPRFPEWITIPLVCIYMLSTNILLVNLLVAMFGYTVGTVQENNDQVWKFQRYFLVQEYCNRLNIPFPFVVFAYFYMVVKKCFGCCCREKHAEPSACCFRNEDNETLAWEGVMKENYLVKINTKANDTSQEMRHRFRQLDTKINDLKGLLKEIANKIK

Row | SMILES | % I (0.5 μM) [%] | IC50 (read-out: IC50) [µM] | % I (1 μM) [%] | inhibition at 1 µM [%] | IC50 (IC50 (μM)) [µM]
1 | CCOP(=O)(OCC)C(Cc1ccc(OC(F)(F)F)c(Cl)c1)c1sc2ccccc2c1Br (racemic) [Cpd 149] | 103 | 0.06 | – | – | –
2 | CC(C)OP(=O)(OC(C)C)C(Cc1c(Cl)cccc1Cl)c1sc2ccccc2c1Cl (stereo not drawn) [Cpd 183] | 103 | 0.131 | – | – | –
3 | CCOP(=O)(OCC)C(Cc1cccc(OC(F)(F)F)c1)c1sc2ccccc2c1Cl (stereo not drawn) [Cpd 270] | 102 | 0.202 | – | – | –
4 | COc1c(F)c(F)c(CC(c2sc3ccccc3c2Br)P(=O)(OC(C)C)OC(C)C)c(F)c1F (racemic) [Cpd 161] | 103 | 0.019 | – | – | –
5 | CC(C)OP(=O)(OC(C)C)C(Cc1ccc(F)c(C(F)(F)F)c1)c1c(Br)c2ccccc2n1C(=O)OC(C)(C)C (stereo not drawn) [Cpd 327, 3-Bromo-2-[1-(diisopropoxy-phosporyl)-2-(4-fluoro-3-trifluoromethyl-phenyl)-ethyl]-indole-1-carboxylic acid tert-butyl ester] | 44 | – | – | – | –
6 | CCOP(=O)(OCC)C(Cc1cccc(OC(F)(F)F)c1)c1sc2ccccc2c1C (stereo not drawn) [Cpd 57] | – | 0.26 | 100 | – | –
7 | CCOP(=O)(OCC)C(Cc1cc(F)cc(C(F)(F)F)c1)c1sc2ccccc2c1C (stereo not drawn) [Cpd 56] | – | 0.24 | 103 | – | –
8 | CCOP(=O)(OCC)C(Cc1ccc(F)c(F)c1)c1cc2cccnc2s1 (stereo not drawn) [Cpd 131] | – | – | 28 | – | –
9 | CCOP(=O)(OCC)C(Cc1ccc(SC(F)(F)F)cc1)c1sc2ccccc2c1Br (racemic) [Cpd 153] | 103 | 0.043 | – | – | –
10 | CCOP(=O)(OCCN(C)C)C(Cc1ccc(F)c(F)c1)c1sc2ccccc2c1C (stereo not drawn) [Cpd 103, [2-(3,4-Difluoro-phenyl)-1-(3-methyl-benzo[b]thiophen-2-yl)-ethyl]-phosphonic acid 2-dimethylamino-ethyl ester ethyl ester] | – | – | – | 60 | 0.93
11 | CCOP(=O)(OCC)C(Cc1ccc(F)c(F)c1)c1oc2ccccc2c1C (stereo not drawn) [Cpd 9, [2-(3,4-Difluoro-phenyl)-1-(3-methyl-benzofuran-2-yl)-ethyl]-phosphonic acid diethyl ester] | – | – | – | 100 | 0.041
12 | CCOP(=O)(OCC)C(Cc1ccc(C(F)(F)F)cc1)c1sc2ccccc2c1Br (racemic) [Cpd 154] | 103 | 0.027 | – | – | –
13 | CC(C)OP(=O)(OC(C)C)C(Cc1cc(F)cc(C(F)(F)F)c1)c1sc2ccccc2c1Cl (racemic) [Cpd 169] | 104 | 0.096 | – | – | –
14 | CCOP(=O)(OCC)C(Cc1cccc(C(F)(F)F)c1F)c1sc2ccccc2c1Cl (racemic) [Cpd 281] | 102 | 0.131 | – | – | –
15 | CCOP(=O)(OCC)C(Cc1cccc(Cl)c1Cl)c1cc2ccccc2s1 (stereo not drawn) [Cpd 100] | – | 0.73 | 82 | – | –
16 | CC(C)OP(=O)(OC(C)C)C(Cc1cc(O)c(Cl)cc1F)c1sc2ccccc2c1Br (racemic) [Cpd 232] | 99 | 0.063 | – | – | –
17 | CC(C)OP(=O)(OC(C)C)C(Cc1ccc(Cl)c(F)c1)c1sc2ccccc2c1Cl (racemic) [Cpd 302] | 103 | 0.079 | – | – | –
18 | CCOP(=O)(OCC)C(Cc1ccc(F)c(Cl)c1)c1sc2ccccc2c1Cl (racemic) [Cpd 297] | 103 | 0.04 | – | – | –
19 | COc1cccc(CC(c2sc3ccccc3c2Br)P(=O)(OC(C)C)OC(C)C)c1 (stereo not drawn) [Cpd 317] | 102 | 0.021 | – | – | –
20 | CC(C)OP(=O)(OC(C)C)C(Cc1cccc(C(F)(F)F)c1F)c1sc2ccccc2c1Cl (racemic) [Cpd 168] | 104 | 0.076 | – | – | –
21 | CCOP(=O)(OCC)C(Cc1ccccc1OC(F)(F)F)c1sc2ccccc2c1C (stereo not drawn) [Cpd 61] | – | 0.28 | 100 | – | –
22 | CCOP(=O)(OCC)C(Cc1ccc2ccccc2c1)c1cc2ccccc2s1 (stereo not drawn) [Cpd 83] | – | 0.45 | 84 | – | –
23 | CCOP(=O)(OCC)C(Cc1ccccc1)c1cc2ccccc2s1 (stereo not drawn) [Cpd 74] | – | 0.38 | 92 | – | –
24 | CCOP(=O)(OCC)C(Cc1ccc(F)c(F)c1)c1sc2c(C(F)(F)F)cccc2c1C (stereo not drawn) [Cpd 116] | – | – | 64 | – | –
